Measured values published in PubChem BioAssay (NCI).
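Exposure lasted 48 hours, with cells grown in 96-well plates and compounds tested at five concentrations. GI50: concentration for 50% inhibition of growth. At the TGI there is no net growth.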

Key:
Experiment in all cases: DTP human tumour cell line panel, 48 h
[1] = system: 786-0 renal
[2] = system: A498 renal
[3] = system: A549 NSCLC
[4] = system: ACHN renal
[5] = system: BT-549 breast
[6] = system: CAKI-1 renal
[7] = system: CCRF-CEM leukemia
[8] = system: COLO 205 colon
[9] = system: DU-145 prostate
[10] = system: EKVX NSCLC
[11] = system: HCC-2998 colon
[12] = system: HCT-116 colon
[13] = system: HCT-15 colon
[14] = system: HL-60(TB) leukemia
[15] = system: HOP-62 NSCLC
[16] = system: HOP-92 NSCLC
[17] = system: HS 578T breast
[18] = system: HT29 colon
[19] = system: K-562 leukemia
[20] = system: KM12 colon
[21] = system: LOX IMVI melanoma
[22] = system: M14 melanoma
[23] = system: MALME-3M melanoma
[24] = system: MCF7 breast
[25] = system: MDA-MB-231 breast
[26] = system: MDA-MB-435
[27] = system: MOLT-4 leukemia
[28] = system: NCI-H226 lung
[29] = system: NCI-H23 lung
[30] = system: NCI-H460 lung
[31] = system: NCI/ADR-RES ovarian
[32] = system: OVCAR-3 ovarian
[33] = system: OVCAR-4 ovarian
[34] = system: OVCAR-5 ovarian
[35] = system: OVCAR-8 ovarian
[36] = system: PC-3 prostate
[37] = system: RPMI-8226 leukemia
[38] = system: RXF 393 renal
[39] = system: SF-268 CNS
[40] = system: SF-295 CNS
[41] = system: SF-539 CNS
[42] = system: SK-MEL-28 melanoma
[43] = system: SK-MEL-5 melanoma
[44] = system: SK-OV-3 ovarian
[45] = system: SN12C renal
[46] = system: SNB-19 CNS
[47] = system: SNB-75 CNS
[48] = system: SR leukemia
[49] = system: SW-620 colon
[50] = system: T-47D breast
[51] = system: TK-10 renal
[52] = system: U251 CNS
[53] = system: UACC-257 melanoma
[54] = system: UACC-62 melanoma

CCOC(=O)C1=C(C)N(c2ccc(OC)cc2)C2(O)C=CC(=O)C3C(=O)N(c4ccccc4)C(=O)C132 (stereo not drawn)
GI50 [1]: 2.28 µM
TGI [1]: 5.34 µM
GI50 [2]: 11.4 µM
TGI [2]: 23.5 µM
GI50 [3]: 3.29 µM
TGI [3]: 13 µM
GI50 [4]: 1.94 µM
TGI [4]: 3.93 µM
GI50 [5]: 1.93 µM
TGI [5]: 4.15 µM
GI50 [6]: 3.52 µM
TGI [6]: 10.1 µM
GI50 [7]: 1.67 µM
TGI [7]: 13 µM
GI50 [8]: 1.9 µM
TGI [8]: 3.83 µM
GI50 [9]: 1.82 µM
TGI [9]: 4.7 µM
GI50 [10]: 2.71 µM
TGI [10]: 12.1 µM
GI50 [11]: 1.71 µM
TGI [11]: 3.19 µM
GI50 [12]: 1.17 µM
TGI [12]: 2.48 µM
GI50 [13]: 1.95 µM
TGI [13]: 6.5 µM
GI50 [14]: 2.34 µM
TGI [14]: 5.82 µM
GI50 [15]: 3.72 µM
TGI [15]: 10.3 µM
GI50 [16]: 2.78 µM
TGI [16]: 7.97 µM
GI50 [17]: 3.89 µM
TGI [17]: 29.9 µM
GI50 [18]: 2.04 µM
TGI [18]: 3.75 µM
GI50 [19]: 2.68 µM
TGI [19]: > 100 µM
GI50 [20]: 1.84 µM
TGI [20]: 3.41 µM
GI50 [21]: 1.55 µM
TGI [21]: 2.96 µM
GI50 [22]: 2.2 µM
TGI [22]: 5.39 µM
GI50 [23]: 2.04 µM
TGI [23]: 3.83 µM
GI50 [24]: 2.6 µM
TGI [24]: 11.1 µM
GI50 [25]: 3.19 µM
TGI [25]: 7.77 µM
GI50 [26]: 2.72 µM
TGI [26]: 7.47 µM
GI50 [27]: 2.42 µM
TGI [27]: 5.66 µM
GI50 [28]: 2.56 µM
TGI [28]: 5.18 µM
GI50 [29]: 2.34 µM
TGI [29]: 6.66 µM
GI50 [30]: 2.08 µM
TGI [30]: 5.25 µM
GI50 [31]: 3.57 µM
TGI [31]: 22.3 µM
GI50 [32]: 1.89 µM
TGI [32]: 3.66 µM
GI50 [33]: 2.21 µM
TGI [33]: 5.89 µM
GI50 [34]: 4.08 µM
TGI [34]: 22.8 µM
GI50 [35]: 3.58 µM
TGI [35]: 17.3 µM
GI50 [36]: 2.89 µM
TGI [36]: 10.1 µM
GI50 [37]: 1.95 µM
TGI [37]: 5.15 µM
GI50 [38]: 1.81 µM
TGI [38]: 3.42 µM
GI50 [39]: 3.51 µM
TGI [39]: 18.4 µM
GI50 [40]: 15.1 µM
TGI [40]: 28.6 µM
GI50 [41]: 2.27 µM
TGI [41]: 5.6 µM
GI50 [42]: 1.86 µM
TGI [42]: 4.29 µM
GI50 [43]: 1.51 µM
TGI [43]: 3.05 µM
GI50 [44]: 9.92 µM
TGI [44]: 21.7 µM
GI50 [45]: 4.09 µM
TGI [45]: 12.5 µM
GI50 [46]: 4.74 µM
TGI [46]: 16.8 µM
GI50 [47]: 4.16 µM
TGI [47]: 13.8 µM
GI50 [48]: 1.59 µM
TGI [48]: 5.26 µM
GI50 [49]: 1.88 µM
TGI [49]: 3.83 µM
GI50 [50]: 1.79 µM
TGI [50]: 6.08 µM
GI50 [51]: 3.48 µM
TGI [51]: 9.05 µM
GI50 [52]: 2.14 µM
TGI [52]: 5.21 µM
GI50 [53]: 2.78 µM
TGI [53]: 11 µM
GI50 [54]: 2.41 µM
TGI [54]: 5.47 µM
